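Results reflect a 48-hour exposure of cells in 96-well plates to compound at five concentrations. Abbreviation: GI50, concentration required for 50% inhibition of growth.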 The source made the active and inactive calls. No stated cut-off is given here; in the data, active = GI50 up to about 1.1 µM and inactive = higher.
How the values were obtained:
Assay in all cases: inhibition of tumour cell growth, NCI panel, 48 h
786-0 = test system: 786-0
A498 = test system: A498
A549 = test system: A549
ACHN = test system: ACHN
BT-549 = test system: BT-549
CAKI-1 = test system: CAKI-1
CCRF-CEM = test system: CCRF-CEM
COLO 205 = test system: COLO 205
DU-145 = test system: DU-145
EKVX = test system: EKVX
HCC 2998 = test system: HCC 2998
HCT-116 = test system: HCT-116
HCT-15 = test system: HCT-15
HL-60 = test system: HL-60
HOP-62 = test system: HOP-62
HOP-92 = test system: HOP-92
HT-29 = test system: HT-29
Hs-578T = test system: Hs-578T
IGROV-1 = test system: IGROV-1
K562 = test system: K562
KM12 = test system: KM12
LOX IMVI = test system: LOX IMVI
M14 = test system: M14
MCF7 = test system: MCF7
MDA-MB-231 = test system: MDA-MB-231
MDA-MB-435 = test system: MDA-MB-435
MDA-N = test system: MDA-N
MOLT-4 = test system: MOLT-4
Malme-3M = test system: Malme-3M
NCI-H226 = test system: NCI-H226
NCI-H23 = test system: NCI-H23
NCI-H460 = test system: NCI-H460
NCI-H522 = test system: NCI-H522
NCI/ADR-RES = test system: NCI/ADR-RES
OVCAR-3 = test system: OVCAR-3
OVCAR-4 = test system: OVCAR-4
OVCAR-5 = test system: OVCAR-5
OVCAR-8 = test system: OVCAR-8
PC-3 = test system: PC-3
RPMI-8226 = test system: RPMI-8226
RXF 393 = test system: RXF 393
SF-268 = test system: SF-268
SF-295 = test system: SF-295
SF-539 = test system: SF-539
SK-MEL-28 = test system: SK-MEL-28
SK-MEL-2 = test system: SK-MEL-2
SK-MEL-5 = test system: SK-MEL-5
SK-OV-3 = test system: SK-OV-3
SN12C = test system: SN12C
SNB-19 = test system: SNB-19
SNB-75 = test system: SNB-75
SR = test system: SR
SW-620 = test system: SW-620
T47D = test system: T47D
TK-10 = test system: TK-10
U-251 = test system: U-251
UACC-257 = test system: UACC-257
UACC-62 = test system: UACC-62
UO-31 = test system: UO-31
DLD-1 = test system: DLD-1
DMS-114 = test system: DMS-114
KM-20L2 = test system: KM-20L2
LXFL 529 = test system: LXFL 529
M19-MEL = test system: M19-MEL
SNB-78 = test system: SNB-78

Compound: O=C(O)C1C2c3ccccc3C(c3ccccc32)C1C(=O)NCC1CC1 (stereo not drawn)
- GI50 (786-0): > 100 µM (inactive)
- GI50 (A498): 78 µM (inactive)
- GI50 (A549): 62.2 µM (inactive)
- GI50 (ACHN): 78 µM (inactive)
- GI50 (BT-549): 60 µM (inactive)
- GI50 (CAKI-1): > 100 µM (inactive)
- GI50 (CCRF-CEM): 31.2 µM (inactive)
- GI50 (COLO 205): 54.5 µM (inactive)
- GI50 (DU-145): 81.1 µM (inactive)
- GI50 (EKVX): 71.9 µM (inactive)
- GI50 (HCC 2998): 13.5 µM (inactive)
- GI50 (HCT-116): 47.4 µM (inactive)
- GI50 (HCT-15): 48.3 µM
- GI50 (HL-60): 24.8 µM (inactive)
- GI50 (HOP-62): 68.2 µM (inactive)
- GI50 (HOP-92): 70.5 µM (inactive)
- GI50 (HT-29): 71.6 µM (inactive)
- GI50 (Hs-578T): 63.5 µM (inactive)
- GI50 (IGROV-1): 72.6 µM (inactive)
- GI50 (K562): 45.3 µM (inactive)
- GI50 (KM12): 55.3 µM (inactive)
- GI50 (LOX IMVI): 65.8 µM (inactive)
- GI50 (M14): 61.9 µM (inactive)
- GI50 (MCF7): 52.1 µM (inactive)
- GI50 (MDA-MB-231): > 100 µM (inactive)
- GI50 (MDA-MB-435): 51.2 µM (inactive)
- GI50 (MDA-N): 48.2 µM (inactive)
- GI50 (MOLT-4): 29.9 µM (inactive)
- GI50 (Malme-3M): > 100 µM (inactive)
- GI50 (NCI-H226): 60.4 µM (inactive)
- GI50 (NCI-H23): 47.9 µM (inactive)
- GI50 (NCI-H460): 40.2 µM (inactive)
- GI50 (NCI-H522): 29.9 µM (inactive)
- GI50 (NCI/ADR-RES): 32.4 µM (inactive)
- GI50 (OVCAR-3): 46.8 µM (inactive)
- GI50 (OVCAR-4): 79.1 µM (inactive)
- GI50 (OVCAR-5): > 100 µM (inactive)
- GI50 (OVCAR-8): 55 µM (inactive)
- GI50 (PC-3): 53.7 µM (inactive)
- GI50 (RPMI-8226): 24.7 µM (inactive)
- GI50 (RXF 393): 97.5 µM (inactive)
- GI50 (SF-268): 94.4 µM (inactive)
- GI50 (SF-295): 46.2 µM (inactive)
- GI50 (SF-539): > 100 µM (inactive)
- GI50 (SK-MEL-28): > 100 µM (inactive)
- GI50 (SK-MEL-2): 91.6 µM (inactive)
- GI50 (SK-MEL-5): 66.8 µM (inactive)
- GI50 (SK-OV-3): 56.2 µM (inactive)
- GI50 (SN12C): 55.2 µM (inactive)
- GI50 (SNB-19): > 100 µM (inactive)
- GI50 (SNB-75): 84.5 µM (inactive)
- GI50 (SR): 45 µM (inactive)
- GI50 (SW-620): 50.2 µM (inactive)
- GI50 (T47D): 56.8 µM (inactive)
- GI50 (TK-10): 32.4 µM (inactive)
- GI50 (U-251): 47 µM (inactive)
- GI50 (UACC-257): 19.1 µM (inactive)
- GI50 (UACC-62): 38.5 µM (inactive)
- GI50 (UO-31): 71.4 µM (inactive)

Compound: CC(=O)C(CN1CCOCC1)C(c1ccccc1)c1c(O)c2ccccc2oc1=O (stereo not drawn)
- GI50 (786-0): > 100 µM (inactive)
- GI50 (A498): > 100 µM (inactive)
- GI50 (A549): > 100 µM (inactive)
- GI50 (ACHN): > 100 µM (inactive)
- GI50 (BT-549): > 100 µM (inactive)
- GI50 (CAKI-1): > 100 µM (inactive)
- GI50 (CCRF-CEM): > 100 µM (inactive)
- GI50 (COLO 205): > 100 µM (inactive)
- GI50 (DU-145): > 100 µM (inactive)
- GI50 (EKVX): > 100 µM (inactive)
- GI50 (HCC 2998): > 100 µM (inactive)
- GI50 (HCT-116): > 100 µM (inactive)
- GI50 (HCT-15): > 100 µM
- GI50 (HL-60): 41.3 µM (inactive)
- GI50 (HOP-62): > 100 µM (inactive)
- GI50 (HOP-92): 32 µM (inactive)
- GI50 (HT-29): > 100 µM (inactive)
- GI50 (Hs-578T): > 100 µM (inactive)
- GI50 (IGROV-1): > 100 µM (inactive)
- GI50 (K562): > 100 µM (inactive)
- GI50 (KM12): > 100 µM (inactive)
- GI50 (LOX IMVI): > 100 µM (inactive)
- GI50 (M14): > 100 µM (inactive)
- GI50 (MCF7): > 100 µM (inactive)
- GI50 (MDA-MB-231): 83.9 µM (inactive)
- GI50 (MDA-MB-435): > 100 µM (inactive)
- GI50 (MDA-N): > 100 µM (inactive)
- GI50 (MOLT-4): > 100 µM (inactive)
- GI50 (Malme-3M): 80.9 µM (inactive)
- GI50 (NCI-H226): > 100 µM (inactive)
- GI50 (NCI-H23): > 100 µM (inactive)
- GI50 (NCI-H460): > 100 µM (inactive)
- GI50 (NCI-H522): > 100 µM (inactive)
- GI50 (NCI/ADR-RES): > 100 µM (inactive)
- GI50 (OVCAR-3): > 100 µM (inactive)
- GI50 (OVCAR-4): > 100 µM (inactive)
- GI50 (OVCAR-5): > 100 µM (inactive)
- GI50 (OVCAR-8): > 100 µM (inactive)
- GI50 (PC-3): > 100 µM (inactive)
- GI50 (RPMI-8226): 43.1 µM (inactive)
- GI50 (RXF 393): 31.6 µM (inactive)
- GI50 (SF-268): > 100 µM (inactive)
- GI50 (SF-295): > 100 µM (inactive)
- GI50 (SF-539): > 100 µM (inactive)
- GI50 (SK-MEL-28): > 100 µM (inactive)
- GI50 (SK-MEL-2): > 100 µM (inactive)
- GI50 (SK-MEL-5): > 100 µM (inactive)
- GI50 (SK-OV-3): > 100 µM (inactive)
- GI50 (SN12C): > 100 µM (inactive)
- GI50 (SNB-19): > 100 µM (inactive)
- GI50 (SNB-75): > 100 µM (inactive)
- GI50 (SR): 64.7 µM (inactive)
- GI50 (SW-620): > 100 µM (inactive)
- GI50 (T47D): > 100 µM (inactive)
- GI50 (TK-10): > 100 µM (inactive)
- GI50 (U-251): > 100 µM (inactive)
- GI50 (UACC-257): > 100 µM (inactive)
- GI50 (UACC-62): > 100 µM (inactive)
- GI50 (UO-31): > 100 µM (inactive)

Compound: CCCCCCCCCCCCCB(O)O
- GI50 (786-0): 95.5 µM (inactive)
- GI50 (A498): 50.2 µM (inactive)
- GI50 (CCRF-CEM): 57.8 µM (inactive)
- GI50 (COLO 205): > 100 µM (inactive)
- GI50 (DLD-1): 65.2 µM (inactive)
- GI50 (DMS-114): 65.5 µM (inactive)
- GI50 (HOP-62): > 100 µM (inactive)
- GI50 (IGROV-1): > 100 µM (inactive)
- GI50 (KM-20L2): 60.7 µM (inactive)
- GI50 (LOX IMVI): > 100 µM (inactive)
- GI50 (LXFL 529): 81.8 µM (inactive)
- GI50 (M19-MEL): > 100 µM (inactive)
- GI50 (Malme-3M): > 100 µM (inactive)
- GI50 (NCI-H226): 96.2 µM (inactive)
- GI50 (NCI-H460): 85.5 µM (inactive)
- GI50 (NCI-H522): 51.3 µM (inactive)
- GI50 (OVCAR-3): 50.7 µM (inactive)
- GI50 (OVCAR-8): > 100 µM (inactive)
- GI50 (SF-268): 69.2 µM (inactive)
- GI50 (SF-295): > 100 µM (inactive)
- GI50 (SF-539): > 100 µM (inactive)
- GI50 (SK-MEL-28): > 100 µM (inactive)
- GI50 (SK-OV-3): > 100 µM (inactive)
- GI50 (SN12C): 66.2 µM (inactive)
- GI50 (SNB-78): 58.1 µM (inactive)
- GI50 (SW-620): 61.5 µM (inactive)
- GI50 (TK-10): > 100 µM (inactive)
- GI50 (U-251): 60.4 µM (inactive)
- GI50 (UACC-257): > 100 µM (inactive)
- GI50 (UACC-62): > 100 µM (inactive)

Source: ChEMBL document CHEMBL1201862, “PubChem BioAssay data set” (2004)
